Experimental data from patent US20090010998A1 (priority 2007, published 2009).

How the values were obtained:
BALB/c or A/J mice = conditions: mouse, in vivo
backs of BALB/c mice = assay: in vivo release test, FD&C dye impregnated dissolvable film on abraded skin; conditions: one hour after application; visually noted, estimated
Description: In one test, the backs of BALB/c mice were treated in multiple sites with an abrasive device (FAST™ device, see, for example, United States Publication No. 20040236269, incorporated herein by reference) where a 60 μm abrasive, was applied to the skin with 10-20 grams of force, oscillating at 840 Hz for 2 seconds over a 5×8 mm spot. FD&C dye impregnated dissolvable films were placed over each treatment site with a semi-occlusive covering (patch). The patch was left on for a period of 1-24 hours.

| Molecule | effect of adjuvant/preservative on antibody titer (BALB/c or A/J mice) | effect of adjuvant/preservative on efficiency of TCI (BALB/c or A/J mice) | presence of dye on the mouse skin (backs of BALB/c mice) |
| --- | --- | --- | --- |
| C=O [formalin] | higher titer antibody response | did not show a statistically significant difference |  |
| FD&C No. 1 dye |  |  | > 75% |
| alum | higher titer antibody response |  |  |
